Data taken from patent EP0428423A2, “Aryloxy alkyl benzenes, processes for their preparation and pharmaceutical compositions containing them” (LIPHA S.A., priority 1989, dated 1991).

Experiments:
RAT = assay: Diuretic activity in the rat (hourly urine volume, sodium and potassium assay); type: in vivo; conditions: po; R = RAT; diuretic activity; read-out: Dose minimale active
Text: (§1) d'urine sont déterminés toutes les heures. Le dosage de sodium et du potassium est effectué par spectrophotométrie.

SOURIS = assay: Diuretic activity in the mouse (hourly urine volume, sodium and potassium assay); type: in vivo; conditions: S = SOURIS, PO, at the dose (minimal active dose)
Text: as §1

[1] = tested on: plasmas riches en plaquettes provenant de sang de rat; assay: Platelet anti-aggregation in vitro, ADP-induced (Born aggregometer); type: cell-based; conditions: in vitro, aggregating agent ADP, rat platelet-rich plasma, 37°; M not defined in the text; mM printed only in the TICLOPIDINE line
Procedure: Les études ont été réalisées sur des plasmas riches en plaquettes provenant de sang de rat, l'agrégation étant induite par addition d'acide Adénosine diphosphorique. Les courbes néphélométriques d'agrégation sont obtenues en utilisant un agrégomètre de type BORN, le plasma étant placé en incubation à 37° avec agitation continue de 1100 t/mn (cf. BORN G.V.R et CROSS J. - J. Physiol. 168 (1962) 178.

COTRANSPORT Na-K = biological target: T1, COTRANSPORT Na-K (Homo sapiens, UniProt P55011); assay: Na-K cotransport of human erythrocytes; type: cell-based, ERYTHROCYTES HUMAINS; conditions: human erythrocytes
T1 construct: systèmes de transport du sodium et du potassium des érythrocytes humains; endogenous in cells; host or cells: human erythrocytes
T1 sequence (P55011 1-1212): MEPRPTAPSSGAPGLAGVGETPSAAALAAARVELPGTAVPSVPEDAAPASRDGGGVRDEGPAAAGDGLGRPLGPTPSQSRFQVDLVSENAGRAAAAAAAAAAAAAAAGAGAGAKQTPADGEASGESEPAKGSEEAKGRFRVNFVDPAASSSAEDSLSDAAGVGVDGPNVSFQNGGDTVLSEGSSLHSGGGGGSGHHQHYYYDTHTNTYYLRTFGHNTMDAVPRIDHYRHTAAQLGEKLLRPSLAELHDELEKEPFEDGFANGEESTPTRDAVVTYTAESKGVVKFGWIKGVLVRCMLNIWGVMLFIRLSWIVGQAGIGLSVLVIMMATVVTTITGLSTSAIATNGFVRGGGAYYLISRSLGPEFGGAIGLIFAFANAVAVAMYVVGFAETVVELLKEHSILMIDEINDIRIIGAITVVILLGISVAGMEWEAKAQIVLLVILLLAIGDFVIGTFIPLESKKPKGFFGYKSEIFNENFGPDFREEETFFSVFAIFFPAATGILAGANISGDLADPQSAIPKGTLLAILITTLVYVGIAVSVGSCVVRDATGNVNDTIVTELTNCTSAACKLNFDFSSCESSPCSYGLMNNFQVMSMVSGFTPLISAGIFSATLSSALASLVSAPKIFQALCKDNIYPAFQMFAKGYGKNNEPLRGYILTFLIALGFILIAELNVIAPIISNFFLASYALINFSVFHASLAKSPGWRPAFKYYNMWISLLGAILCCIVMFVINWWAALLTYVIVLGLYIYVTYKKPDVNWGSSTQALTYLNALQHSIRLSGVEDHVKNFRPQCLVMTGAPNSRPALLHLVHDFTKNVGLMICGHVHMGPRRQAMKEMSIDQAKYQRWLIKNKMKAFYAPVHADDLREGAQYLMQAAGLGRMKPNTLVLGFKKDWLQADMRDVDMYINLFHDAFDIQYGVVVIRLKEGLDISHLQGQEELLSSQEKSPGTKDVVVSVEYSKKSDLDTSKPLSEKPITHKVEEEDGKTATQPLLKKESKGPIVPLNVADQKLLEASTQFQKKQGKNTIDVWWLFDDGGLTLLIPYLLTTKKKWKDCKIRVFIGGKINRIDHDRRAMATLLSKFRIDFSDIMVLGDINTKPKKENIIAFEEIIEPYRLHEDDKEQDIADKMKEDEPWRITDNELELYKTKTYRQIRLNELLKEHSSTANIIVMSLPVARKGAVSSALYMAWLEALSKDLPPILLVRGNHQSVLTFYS
Text: Cet effet a été étudié selon la méthodologie décrite par G. GARAY et coll. dans Naunyn-Schmidberg's Arch. Pharmakol. […] Pharm.

ECHANGEUR D'ANIONS = biological target: T2, ECHANGEUR D'ANIONS (Homo sapiens, UniProt P02730); assay: Anion exchanger of human erythrocytes; type: cell-based, ERYTHROCYTES HUMAINS
T2 construct: systèmes de transport du sodium et du potassium des érythrocytes humains; endogenous in cells; host or cells: human erythrocytes
T2 sequence (P02730 1-911): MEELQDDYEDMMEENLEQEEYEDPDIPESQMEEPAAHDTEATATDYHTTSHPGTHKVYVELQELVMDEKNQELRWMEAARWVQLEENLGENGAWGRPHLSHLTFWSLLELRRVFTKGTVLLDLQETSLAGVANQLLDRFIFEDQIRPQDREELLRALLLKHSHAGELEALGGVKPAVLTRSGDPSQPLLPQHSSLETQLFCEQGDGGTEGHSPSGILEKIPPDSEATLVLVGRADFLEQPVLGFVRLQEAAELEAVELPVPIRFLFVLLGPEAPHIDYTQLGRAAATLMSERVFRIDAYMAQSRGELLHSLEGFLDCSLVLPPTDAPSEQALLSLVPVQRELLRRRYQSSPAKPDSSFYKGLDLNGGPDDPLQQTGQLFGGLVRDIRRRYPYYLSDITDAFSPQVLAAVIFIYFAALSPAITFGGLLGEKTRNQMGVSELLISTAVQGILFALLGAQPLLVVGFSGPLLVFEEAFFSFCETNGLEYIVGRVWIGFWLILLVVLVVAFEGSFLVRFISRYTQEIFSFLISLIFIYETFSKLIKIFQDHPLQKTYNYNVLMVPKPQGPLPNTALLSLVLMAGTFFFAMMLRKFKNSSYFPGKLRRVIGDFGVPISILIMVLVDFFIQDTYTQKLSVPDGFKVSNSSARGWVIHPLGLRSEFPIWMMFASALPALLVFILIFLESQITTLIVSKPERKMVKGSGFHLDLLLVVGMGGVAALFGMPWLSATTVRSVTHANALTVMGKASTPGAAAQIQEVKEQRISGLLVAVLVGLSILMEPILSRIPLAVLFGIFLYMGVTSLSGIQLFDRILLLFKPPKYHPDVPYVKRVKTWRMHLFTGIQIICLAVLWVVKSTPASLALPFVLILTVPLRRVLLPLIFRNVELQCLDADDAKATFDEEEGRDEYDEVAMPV
Text: Cet effet a été étudié selon la méthodologie décrite par G. GARAY et coll. dans Naunyn-Schmidberg's Arch. Pharmakol. 334 (1986) 202-209 et dans Bioch. Pharm. 33 (1984) 2013-2020.

lipoxygénase de soja = biological target: T3, lipoxygénase de soja (Glycine max, UniProt P08170); assay: Anti-lipoxygenase action on soybean lipoxygenase; type: biochemical
T3 sequence (P08170 1-839): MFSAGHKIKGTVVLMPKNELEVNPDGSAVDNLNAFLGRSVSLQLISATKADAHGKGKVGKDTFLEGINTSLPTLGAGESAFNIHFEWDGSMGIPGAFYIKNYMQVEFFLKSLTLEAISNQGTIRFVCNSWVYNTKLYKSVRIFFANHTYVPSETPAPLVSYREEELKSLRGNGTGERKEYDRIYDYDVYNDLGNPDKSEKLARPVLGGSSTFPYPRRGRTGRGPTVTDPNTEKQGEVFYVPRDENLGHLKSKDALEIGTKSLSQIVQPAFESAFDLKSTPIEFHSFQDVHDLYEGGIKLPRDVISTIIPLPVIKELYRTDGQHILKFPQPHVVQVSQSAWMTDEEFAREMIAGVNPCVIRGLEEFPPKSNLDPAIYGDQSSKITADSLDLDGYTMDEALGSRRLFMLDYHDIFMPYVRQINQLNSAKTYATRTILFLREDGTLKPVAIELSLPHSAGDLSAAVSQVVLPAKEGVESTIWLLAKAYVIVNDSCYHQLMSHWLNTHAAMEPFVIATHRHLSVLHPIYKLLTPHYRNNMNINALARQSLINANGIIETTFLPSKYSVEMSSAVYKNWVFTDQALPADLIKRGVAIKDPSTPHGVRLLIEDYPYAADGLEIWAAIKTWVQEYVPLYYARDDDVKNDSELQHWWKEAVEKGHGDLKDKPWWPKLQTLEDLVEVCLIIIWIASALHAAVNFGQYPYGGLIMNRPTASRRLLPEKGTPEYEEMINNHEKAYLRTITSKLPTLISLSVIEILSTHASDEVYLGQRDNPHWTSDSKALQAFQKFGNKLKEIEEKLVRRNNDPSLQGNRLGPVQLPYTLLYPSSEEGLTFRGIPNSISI
Text: L'action anti-lipoxygénase a été étudiée sur la lipoxygénase de soja selon la méthode décrite par W.L SMITH et W.E LANDS (J. Biol. Chem. 247 (1972) 1038-1047)

COc1cccc(CCOc2ccc(F)cc2)c1 [ex 169]
minimal effective dose (RAT): 12 mg/kg | Pouvoir diurétique en % (SOURIS): Inactif | Rapport Na/K en % (SOURIS): Inactif | M à 50 [1]: inactif | EFFET SUR LE COTRANSPORT Na-K IC 50 (COTRANSPORT Na-K): Non actif | EFFET SUR L'ECHANGEUR D'ANIONS IC 50 (ECHANGEUR D'ANIONS): Non actif | ACTIVITE ANTI-LIPOXYGENASE IC 50 (lipoxygénase de soja): Inactif
